Legend:
Format in all cases: cell-based
[1] = system: p65 (Ser536) phosphorylation in PC-3M cells; assay: TNFα-stimulated p65 (Ser536) phosphorylation, Western blotting; details: 0.1–10 µM
Protocol: (§1) U2OS cells were cultured in McCoy’s 5A Modified Medium, and PC-3M-Luc-C6 prostate cancer cells were cultured in Minimum Essential Medium (MEM), each containing 10% (v/v) Foetal Calf Serum (FCS), L-glutamine ([…]), and penicillin/streptomycin (250 units/mL; 100 μg/mL) and incubated in a humidified atmosphere at 37 °C with 5% (v/v) CO2. Cells were grown to near confluence and prior to experimentation rendered quiescent by serum deprivation for 24 h.
To examine the potential impact of compounds on canonical NF-κB signalling, cells were then exposed to vehicle (DMSO; 0.05% (v/v)) or increasing concentrations of compounds (0.01–30 µM) for 1 h prior to treatment with TNF⍺ (20 ng/mL) for 30 min. Whole-cell extracts were prepared, and the status of IκB⍺, phospho-p65 (Ser536), p65, and phospho-p105 ([…]) was also assessed by Western blotting.
Each figure/panel of Western blotting data represents one of at least three separate experiments. Western blots were scanned and imaged using Adobe Photoshop 5.0.2 software and polypeptide bands were semi-quantified by scanning densitometry using the Scion Image program. Data were normalised to fold expression/inhibition relative to ‘agonist plus vehicle’ treatment and expressed as mean ± s.e.m. IC50 values were established by curve fitting using the Hill equation. […]

[2] = system: p100 phosphorylation (Ser866/870) in PC-3M cells; assay: LTα1β2-stimulated p100 phosphorylation, Western blotting; details: Homo sapiens, 1 h pre-treatment, LTα1β2 4 h
Protocol: as §1
(§2) For examination of potential effects of compound on non-canonical NF-κB signalling, cells were exposed to vehicle (DMSO; 0.03–0.05% (v/v)) or increasing concentrations of compounds (0.01–30 µM) for 1 h prior to treatment with FCS (10% (v/v); for U2OS cells) or LTα1β2 (20 ng/mL; for PC-3M cells) for 4 h. The status of p-p100 (Ser 866/870) in whole-cell extracts prepared from 12-well plates was assessed by Western blotting, as described in McKenzie et al.. […] Thereafter, p52 and RelB status in crude nuclear extracts normalised for protein amounts were assessed by Western blotting.
Each figure/panel of Western blotting data represents one of at least three separate experiments. Western blots were scanned and imaged using Adobe Photoshop 5.0.2 software and polypeptide bands were semi-quantified by scanning densitometry using the Scion Image program. […]

[3] = system: p52/RelB nuclear translocation in PC-3M cells; assay: LTα1β2-stimulated p52/RelB nuclear translocation, Western blotting of crude nuclear extracts; details: Homo sapiens, LTα1β2 4 h
Protocol: Associated with the IKKα-mediated activation of the non-canonical NF-κB pathway is the downstream liberation and the nuclear translocation of p52/RelB-containing NF-κB complexes. The extent of the nuclear translocation of these proteins was also assessed by Western blotting of crude nuclear extracts prepared from PC-3M cells. […] Related to the markers of TNFα-stimulated canonical NF-κB signalling, 6g [SU1349] had no impact on any of TNFα-stimulated IκBα degradation, phosphorylation of p65 (Ser536), or p105 (Ser932) phosphorylation in these cells (Figure 15C).
as §2
Each figure/panel of Western blotting data represents one of at least three separate experiments. […] Data were normalised to fold expression/inhibition relative to ‘agonist plus vehicle’ treatment and expressed as mean ± s.e.m. […]

IC50 [2]	IC50 [3]	Compound	effect on TNFα-stimulated p65 (Ser536) phosphorylation [1]
570 nM		Nc1n[nH]c2ccc(-c3ccnc4[nH]c(-c5cccc(OCc6ccccc6)c5)cc34)cc12 [Compound 5r [SU1261]]	did not impact
200 nM	150 nM	Nc1n[nH]c2ccc(-c3ccnc4[nH]c(-c5ccnc(OCc6ccccc6)c5)cc34)cc12 [Compound 6g [SU1349]]	no impact

Reference: PMC11314561, “Design and Synthesis of Novel Aminoindazole-pyrrolo[2,3-b]pyridine Inhibitors of IKKα That Selectively Perturb Cellular Non-Canonical NF-κB Signalling” (Molecules, 2024)
